According to patent publication US11622947B2, “Compositions comprising quillaja extract and methods of preparations and use thereof” (American River Nutrition, LLC, priority 2019, dated 2023):
Entries after “also recorded” stand apart in the source; their conditions may differ. Read-outs that look alike come from different tables or passages of the source.

Assays:
[1] = Dispersibility / sedimentation of active powder with quillaja powder in DI water (time-dependent trial); type: physicochemical; conditions: for Relative Dispersibilities without quillaja powder: FIGS. 1-6
Method: This example sets forth compositions and methods for making compositions of one active ingredient with quillaja powder. Each of the compositions is prepared by mixing one active ingredient with quillaja powder at a fixed ratio of about 75:25, about 60:40, about 50:50, about 40:60, or about 25:75. This example also sets forth methods to test the dispersibilities of the resulting compositions.
• 1. Add 5 mL DI water to 15 mL disposable glass test tube • 2. Weight out Active ingredient (back weigh for accuracy) • a. For 100% active ingredient, weigh out close to the target amount, note the weight, then zero the balance (with active ingredient still on it) • b. Add active ingredient to test tube with DI water • c. Place mostly empty powder weight boat back onto scale and record actual weight added • d. For other mixtures of active ingredient and quillaja powder, perform similar but add to new weight boat to mix powders (instead of adding directly to test tube) • 3. Weigh out quillaja powder (back weigh for accuracy) • a. Weigh out close to target amount of quillaja, note the weight, then zero the balance (with quillaja still on it) • b. Add quillaja to mixture weight boat (with active) • c. Place mostly empty quillaja weigh boat back onto scale and record actual weight added • 4. Repeat for all ratios of powder mixtures below (dose-dependent study):
• 5. Mix powders together • 6. Add powder mixture to the test tube with DI water. Vortex for exactly 2 minutes and perform time-dependent study • 7. Let settle for 10 minutes then take picture/note observations such as degree of turbidity, dispersibility, any large solids, etc. • 8. After 30 minutes (total), take picture/note observations • 9. After 2 hours (total), take picture/note observations • 10. After 4 hours (total), take picture/note observations • 11. Take special note of the size of the solid “pellet” that settles out on the bottom • a. Try to measure its size (estimated) by taking the radius/diameter combined with the height
This example sets forth compositions of CoQ10 powder and quillaja powder at fixed ratios of 100:0, about 75:25, about 60:40, about 50:50, about 40:60, and about 25:75 respectively. As used herein in Example A2, CoQ10 powder is ubiquinone powder as CoQ10(ubiquinone) powder. The compositions have been prepared according to experimental procedures in Example 1A. A time-dependent trial of sedimentation rates of the compositions comprising ubiquinone powder and quillaja powder at different ratios in water was conducted at time points of 10 minutes, 30 minutes, 2 hours, and 4 hours are shown in FIG. 1. Regarding the test tubes in each of the pictures of FIG. 1, from right to left, the weight ratios of CoQ10(ubiquinone) powder to quillaja powder are in the order of 100:0, about 75:25, about 60:40, about 50:50, about 40:60, and about 25:75 respectively. […] Increasing extent of turbidity was indicative of the highest dispersibility and solubility.
This example sets forth comparisons of the dispersibilities for compositions of Examples A2-A7, which comprise various active ingredients mixed with quillaja powder at various fixed ratios. After comparing the results shown in FIGS. 1-6, the relative dispersibilities are as following: • a) Relative Dispersibilities without quillaja powder: Quercetin>Berberine>Resveratrol>Curcumin>DIM>CoQ10(ubiquinone) • b) Relative Dispersibilities with quillaja powder at time point of 30 minute or less: Quercetin>(Curcumin=Resveratrol)>(DIM=Berberine)>CoQ10(ubiquinone) • c) Relative Dispersibilities with quillaja powder at time point of 2 hours or more Quercetin>(DIM=Curcumin=Resveratrol)>Berberine>CoQ10(ubiquinone)

[2] = Surface tension interaction by visual observation of glass smearing above the water level; type: physicochemical
Method: This example sets forth comparisons of the surface tension interactions of the compositions of Example A2-A7. The surface tension interactions of the compositions of various active ingredients mixed with quillaja powder at various fixed ratios were specifically compared with those of the compositions of various active ingredients without quillaja powder. Surface tension interaction is determined by visual observation of glass smearing of active ingredient powders above the water level. • a) Relative surface tension interaction without quillaja powder: (CoQ10(ubiquinone)≥Curcumin)>(Resveratrol≥DIM)>(Quercetin≥Berberine) • b) Relative surface tension interaction with quillaja powder: […]

[3] = Bioaccessibility of ubiquinol by simulated in vitro digestion; type: in vitro ADME; conditions: HPLC of filtered supernatant
Description: In some embodiments, methods of increasing the bioaccessibility and/or bioavailability of an active ingredient in a subject are provided. The active ingredient can be any active ingredients, such as, but not limited to, those described herein. In some embodiments, the methods comprise administering to the subject any of the compositions provided for herein. The administration can be by any method, such as those described herein. […] An increase in bioaccessibility can be determined by any suitable method. For example, bioaccessibility can be measured by simulated in vitro digestion. […] Without being bound to any particular method, in some embodiments, bioaccessibility is determined by mixing a sample (a composition) with a saliva solution and, optionally, mucin. […] The samples can then be analyzed by HPLC to determine the increase in bioaccessibility. Bioaccessibility can be calculated by dividing the amount of the at least one active ingredient measured by, for example HPLC, by the theoretical (or actual amount of ubiquinol in the sample)×100 to determine the percent bioaccessibility. […]
This example sets forth to test the effect of quillaja powder on bioaccessiblity of ubiquinol. Bioaccessibility of ubiquinol was measured by simulated in vitro digestion. […] Bioaccessibility (%)=(ubiquinol measured by HPLC/theoretical amount of ubiquinol in the sample)×100%.

[4] = active:quillaja 100:0, DI water, 10 minutes, 30 minutes, 2 hours, 4 hours

dispersibility and solubility in water, tube without quillaja powder [1, 4] | Relative surface tension interaction without quillaja powder ([2]; listed as berberine) | Relative surface tension interaction without quillaja powder ([2]; listed as curcumin) | dispersibility and solubility in water, tube without quillaja powder [1] | Relative surface tension interaction without quillaja powder ([2]; listed as quercetin) | SMILES | Relative Dispersibilities with quillaja powder at time point of 30 minute or less [1] | Relative Dispersibilities with quillaja powder at time point of 2 hours or more [1] | Relative Dispersibilities without quillaja powder [1] | Relative surface tension interaction without quillaja powder [2] | bioaccessibility of ubiquinol [3] [%]
complete separation | Lowest surface tension |  |  |  | COc1ccc2cc3[n+](cc2c1OC)CCc1cc2c(cc1-3)OCO2 [Berberine, berberine] | Quercetin>(Curcumin=Resveratrol)>(DIM=Berberine)>CoQ10(ubiquinone) | Quercetin>(DIM=Curcumin=Resveratrol)>Berberine>CoQ10(ubiquinone) | Quercetin>Berberine>Resveratrol>Curcumin>DIM>CoQ10(ubiquinone) | (CoQ10(ubiquinone)≥Curcumin)>(Resveratrol≥DIM)>(Quercetin≥Berberine) | 
complete separation |  | Highest surface tension |  |  | COc1cc(/C=C/C(=O)CC(=O)/C=C/c2ccc(O)c(OC)c2)ccc1O [Curcumin, curcumin] | Quercetin>(Curcumin=Resveratrol)>(DIM=Berberine)>CoQ10(ubiquinone) | Quercetin>(DIM=Curcumin=Resveratrol)>Berberine>CoQ10(ubiquinone) | Quercetin>Berberine>Resveratrol>Curcumin>DIM>CoQ10(ubiquinone) | (CoQ10(ubiquinone)≥Curcumin)>(Resveratrol≥DIM)>(Quercetin≥Berberine) | 
 |  |  | complete separation | Lowest surface tension | O=c1c(O)c(-c2ccc(O)c(O)c2)oc2cc(O)cc(O)c12 [Quercetin, quercetin] | Quercetin>(Curcumin=Resveratrol)>(DIM=Berberine)>CoQ10(ubiquinone) | Quercetin>(DIM=Curcumin=Resveratrol)>Berberine>CoQ10(ubiquinone) | Quercetin>Berberine>Resveratrol>Curcumin>DIM>CoQ10(ubiquinone) | (CoQ10(ubiquinone)≥Curcumin)>(Resveratrol≥DIM)>(Quercetin≥Berberine) | 
 |  |  |  |  | COc1c(O)c(C)c(C/C=C(\C)CC/C=C(\C)CC/C=C(\C)CC/C=C(\C)CC/C=C(\C)CC/C=C(\C)CC/C=C(\C)CC/C=C(\C)CC/C=C(\C)CCC=C(C)C)c(O)c1OC [sample A, ubiquinol] |  |  |  |  | 0.88
complete separation |  |  |  |  | Oc1ccc(C=Cc2cc(O)cc(O)c2)cc1 [Resveratrol, resveratrol] | Quercetin>(Curcumin=Resveratrol)>(DIM=Berberine)>CoQ10(ubiquinone) | Quercetin>(DIM=Curcumin=Resveratrol)>Berberine>CoQ10(ubiquinone) | Quercetin>Berberine>Resveratrol>Curcumin>DIM>CoQ10(ubiquinone) | (CoQ10(ubiquinone)≥Curcumin)>(Resveratrol≥DIM)>(Quercetin≥Berberine) | 
 |  |  | complete separation |  | COC1=C(OC)C(=O)C(C/C=C(\C)CC/C=C(\C)CC/C=C(\C)CC/C=C(\C)CC/C=C(\C)CC/C=C(\C)CC/C=C(\C)CC/C=C(\C)CC/C=C(\C)CCC=C(C)C)=C(C)C1=O [CoQ10(ubiquinone), ubiquinone] | Quercetin>(Curcumin=Resveratrol)>(DIM=Berberine)>CoQ10(ubiquinone) | Quercetin>(DIM=Curcumin=Resveratrol)>Berberine>CoQ10(ubiquinone) | Quercetin>Berberine>Resveratrol>Curcumin>DIM>CoQ10(ubiquinone) | (CoQ10(ubiquinone)≥Curcumin)>(Resveratrol≥DIM)>(Quercetin≥Berberine); also recorded: Highest surface tension | 
